{"source": "ChEMBL document CHEMBL4602617", "about": "“Discovery and optimization of heteroaryl piperazines as potent and selective PI3Kδ inhibitors” (Bioorg Med Chem Lett, 2020)", "key": {"[1]": {"biological_target": "Casein kinase II subunit alpha' (Homo sapiens, UniProt P19784)", "sequence (P19784 whole entry)": "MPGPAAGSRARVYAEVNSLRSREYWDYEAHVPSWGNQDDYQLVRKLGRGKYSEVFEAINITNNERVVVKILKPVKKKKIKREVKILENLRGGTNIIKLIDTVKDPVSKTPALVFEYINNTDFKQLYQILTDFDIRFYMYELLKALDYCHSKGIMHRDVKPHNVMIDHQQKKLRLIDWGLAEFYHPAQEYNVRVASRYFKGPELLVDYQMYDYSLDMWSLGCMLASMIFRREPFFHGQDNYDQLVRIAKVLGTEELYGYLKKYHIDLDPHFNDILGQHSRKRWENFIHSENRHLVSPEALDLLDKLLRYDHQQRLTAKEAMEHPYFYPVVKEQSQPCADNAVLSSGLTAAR", "experiment": "Inhibition of recombinant human full-length GST-tagged CSNK2A2 expressed in baculovirus expression system using FRET-labeled Ser/Thr 11 peptide as substrate measured after 1 hr in presence of ATP by Z'-lyte assay"}, "[2]": {"biological_target": "Serine/threonine-protein kinase Nek4 (Homo sapiens, UniProt P51957)", "sequence (P51957 whole entry)": "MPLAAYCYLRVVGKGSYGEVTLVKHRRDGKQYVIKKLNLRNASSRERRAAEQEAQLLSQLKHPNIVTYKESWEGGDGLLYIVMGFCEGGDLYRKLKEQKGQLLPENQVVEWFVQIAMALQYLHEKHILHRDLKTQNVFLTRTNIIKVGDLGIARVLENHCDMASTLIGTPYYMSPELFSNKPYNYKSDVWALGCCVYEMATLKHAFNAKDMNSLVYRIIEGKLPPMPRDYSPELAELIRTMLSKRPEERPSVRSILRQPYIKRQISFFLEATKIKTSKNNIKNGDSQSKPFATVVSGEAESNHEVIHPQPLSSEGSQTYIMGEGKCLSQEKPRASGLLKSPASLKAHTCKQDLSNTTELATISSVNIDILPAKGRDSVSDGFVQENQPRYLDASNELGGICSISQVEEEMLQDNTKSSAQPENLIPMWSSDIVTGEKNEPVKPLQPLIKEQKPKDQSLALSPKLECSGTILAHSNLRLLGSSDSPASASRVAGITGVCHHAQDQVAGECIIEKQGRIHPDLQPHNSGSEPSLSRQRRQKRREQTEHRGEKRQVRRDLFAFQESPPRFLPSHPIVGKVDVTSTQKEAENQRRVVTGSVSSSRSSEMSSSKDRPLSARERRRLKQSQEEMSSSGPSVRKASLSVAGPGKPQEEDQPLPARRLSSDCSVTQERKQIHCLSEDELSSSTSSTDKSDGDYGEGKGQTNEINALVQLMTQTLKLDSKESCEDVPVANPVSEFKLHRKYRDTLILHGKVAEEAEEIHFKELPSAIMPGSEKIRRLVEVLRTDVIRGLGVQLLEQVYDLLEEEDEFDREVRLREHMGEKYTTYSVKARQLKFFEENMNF", "experiment": "Inhibition of recombinant full length human GST-tagged NEK4 expressed in baculovirus expression system using serine/threonine-7 peptide as substrate incubated for 60 mins in presence of ATP by Z'-LYTE assay"}, "[3]": {"biological_target": "Prostaglandin E2 receptor EP1 subtype (Homo sapiens) (UniProt P34995)", "experiment": "Displacement of [3H]prostaglandin E2 from full length human recombinant EP1 receptor expressed in HEK293 cells at 10 uM measured after 60 mins by radiometric scintillation analysis relative to control", "assay_type": "cell-based"}, "[4]": {"biological_target": "Ephrin type-B receptor 3 (Homo sapiens, UniProt P54753)", "sequence (P54753 whole entry, the tested form may be a part)": "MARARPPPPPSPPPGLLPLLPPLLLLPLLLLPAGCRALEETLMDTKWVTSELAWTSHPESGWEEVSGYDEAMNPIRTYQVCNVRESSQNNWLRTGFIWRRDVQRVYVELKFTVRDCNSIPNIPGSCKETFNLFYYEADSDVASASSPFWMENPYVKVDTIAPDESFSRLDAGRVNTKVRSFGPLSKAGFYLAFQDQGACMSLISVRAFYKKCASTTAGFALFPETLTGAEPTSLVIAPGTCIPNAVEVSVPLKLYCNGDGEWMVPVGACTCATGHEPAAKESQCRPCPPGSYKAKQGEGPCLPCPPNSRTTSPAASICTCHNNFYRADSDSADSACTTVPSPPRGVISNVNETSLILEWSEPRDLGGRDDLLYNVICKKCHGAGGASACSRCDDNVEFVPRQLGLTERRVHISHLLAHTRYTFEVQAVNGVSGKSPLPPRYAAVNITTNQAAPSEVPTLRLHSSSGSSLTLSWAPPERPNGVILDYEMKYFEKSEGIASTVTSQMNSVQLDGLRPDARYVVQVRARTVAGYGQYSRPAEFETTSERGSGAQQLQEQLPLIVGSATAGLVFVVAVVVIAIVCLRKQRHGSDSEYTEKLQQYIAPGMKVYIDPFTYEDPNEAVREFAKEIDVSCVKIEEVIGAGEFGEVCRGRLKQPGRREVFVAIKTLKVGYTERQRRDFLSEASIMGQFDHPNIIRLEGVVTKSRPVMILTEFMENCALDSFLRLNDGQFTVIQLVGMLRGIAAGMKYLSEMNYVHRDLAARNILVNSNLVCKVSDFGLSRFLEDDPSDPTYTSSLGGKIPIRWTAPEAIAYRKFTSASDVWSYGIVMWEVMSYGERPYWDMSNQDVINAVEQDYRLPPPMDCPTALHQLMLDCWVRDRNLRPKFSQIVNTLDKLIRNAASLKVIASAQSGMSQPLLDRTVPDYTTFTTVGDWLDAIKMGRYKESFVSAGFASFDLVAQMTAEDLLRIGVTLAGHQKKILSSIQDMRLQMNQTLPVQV", "experiment": "Inhibition of recombinant human GST-tagged EPHB3 catalytic domain expressed in baculovirus expression system using tyrosine-2 peptide as substrate incubated for 60 mins in presence of ATP by Z'-LYTE assay"}, "[5]": {"biological_target": "Caspase-3 (Homo sapiens) (UniProt P42574)", "sequence (P42574 29-175 limits assumed)": "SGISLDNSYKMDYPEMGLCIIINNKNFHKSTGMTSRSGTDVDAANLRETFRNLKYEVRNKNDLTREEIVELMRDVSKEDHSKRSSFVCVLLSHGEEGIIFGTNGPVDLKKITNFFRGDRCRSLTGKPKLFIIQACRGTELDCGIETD", "sequence (P42574 176-277 limits assumed)": "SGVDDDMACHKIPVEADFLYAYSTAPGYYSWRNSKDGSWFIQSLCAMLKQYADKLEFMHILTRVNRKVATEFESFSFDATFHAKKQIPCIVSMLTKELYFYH", "experiment": "Inhibition of recombinant full-length human caspase 3 expressed in Escherichia coli at 10 uM using Ac-DEVD-AMC as substrate after 60 mins by spectrophotometric analysis relative to control"}, "[6]": {"biological_target": "Cyclin-dependent kinase 1/cyclin B1 (Homo sapiens, UniProt P06493)", "experiment": "Inhibition of recombinant full length human His-tagged CDK1/CyclinB expressed in baculovirus expression system using serine/threonine-18 peptide as substrate incubated for 60 mins in presence of ATP by Z'-LYTE assay"}, "[7]": {"biological_target": "B2 bradykinin receptor (Homo sapiens) (UniProt P30411)", "experiment": "Displacement of [3H]bradykinin from recombinant full length human recombinant bradykinin B2 receptor expressed in Chem-1 cells at 10 uM measured after 60 mins by radiometric scintillation analysis relative to control", "assay_type": "cell-based"}, "[8]": {"species_on_record": "Mesocricetus auratus", "experiment": "Displacement of [3H]glyburide from KATP receptor in HIT-T15 Syrian hamster pancreatic B cell membranes at 10 uM after 120 mins by radiometric scintillation analysis relative to control"}, "[9]": {"biological_target": "Ribosomal protein S6 kinase alpha-6 (Homo sapiens, UniProt Q9UK32)", "experiment": "Inhibition of recombinant full length human N-terminal GST-tagged RPS6KA6 expressed in baculovirus expression system using ser/Thr20 peptide as substrate incubated for 60 mins in presence of ATP by Z'-LYTE assay"}, "[10]": {"biological_target": "Glutamate receptor ionotropic, AMPA (Rattus norvegicus) (UniProt P19491+P19492+P19493+P19490)", "experiment": "Displacement of [3H]AMPA from glutamate AMPA receptor in Wistar rat cerebral cortical membranes at 10 uM incubated for 90 mins by radiometric scintillation analysis relative to control"}, "[11]": {"biological_target": "Ephrin type-A receptor 1 (Homo sapiens, UniProt P21709)", "experiment": "Inhibition of recombinant human GST-tagged EPHA1 cytoplasmic domain (568 to 976 residues) expressed in baculovirus expression system using Tyr 02 as substrate after 1 hr in presence of ATP by Z'LYTE assay"}, "[12]": {"biological_target": "Platelet-derived growth factor receptor beta (Homo sapiens, UniProt P09619)", "sequence (P09619 whole entry, the tested form may be a part)": "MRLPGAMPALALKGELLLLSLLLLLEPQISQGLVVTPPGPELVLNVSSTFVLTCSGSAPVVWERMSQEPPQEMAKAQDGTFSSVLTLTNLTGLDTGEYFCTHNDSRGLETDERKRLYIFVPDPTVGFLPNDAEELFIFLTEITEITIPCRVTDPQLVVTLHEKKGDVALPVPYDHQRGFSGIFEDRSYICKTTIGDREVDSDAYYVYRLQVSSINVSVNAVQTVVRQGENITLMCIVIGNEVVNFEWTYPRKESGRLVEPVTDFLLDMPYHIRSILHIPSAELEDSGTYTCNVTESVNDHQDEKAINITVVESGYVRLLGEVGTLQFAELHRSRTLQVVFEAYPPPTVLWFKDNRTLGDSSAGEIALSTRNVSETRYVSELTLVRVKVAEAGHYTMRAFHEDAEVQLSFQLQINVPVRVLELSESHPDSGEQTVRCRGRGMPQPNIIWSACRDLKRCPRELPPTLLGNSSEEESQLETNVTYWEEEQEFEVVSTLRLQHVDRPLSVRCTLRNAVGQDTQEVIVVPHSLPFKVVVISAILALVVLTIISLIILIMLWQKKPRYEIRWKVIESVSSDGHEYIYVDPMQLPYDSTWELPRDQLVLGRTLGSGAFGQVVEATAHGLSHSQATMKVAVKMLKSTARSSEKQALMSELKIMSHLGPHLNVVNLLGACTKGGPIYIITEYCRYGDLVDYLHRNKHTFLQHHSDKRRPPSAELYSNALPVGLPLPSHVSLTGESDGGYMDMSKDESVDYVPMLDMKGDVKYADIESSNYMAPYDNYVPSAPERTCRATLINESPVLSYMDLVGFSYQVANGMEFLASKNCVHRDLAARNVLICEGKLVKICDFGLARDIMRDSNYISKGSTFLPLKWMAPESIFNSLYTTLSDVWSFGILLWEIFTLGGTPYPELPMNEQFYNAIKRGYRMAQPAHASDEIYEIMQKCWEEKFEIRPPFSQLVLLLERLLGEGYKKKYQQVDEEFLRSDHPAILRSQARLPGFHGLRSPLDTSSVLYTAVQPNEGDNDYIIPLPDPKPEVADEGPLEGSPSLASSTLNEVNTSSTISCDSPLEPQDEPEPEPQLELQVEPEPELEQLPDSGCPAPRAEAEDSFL", "experiment": "Inhibition of recombinant human His-tagged PDGFRbeta cytoplasmic domain expressed in baculovirus expression system using tyrosine-4 peptide as substrate incubated for 60 mins in presence of ATP by Z'-LYTE assay"}, "[13]": {"biological_target": "5-hydroxytryptamine receptor 6 (Homo sapiens) (UniProt P50406)", "experiment": "Displacement of [3H] lysergic acid diethylamide from full length human recombinant 5HT6 receptor expressed in HeLa/E6-7 cells at 10 uM measured after 120 mins by radiometric scintillation analysis relative to control", "assay_type": "cell-based"}, "[14]": {"biological_target": "Aurora kinase C (Homo sapiens, UniProt Q9UQB9)", "experiment": "Inhibition of recombinant full length GST-tagged human AURKC expressed in baculovirus expression system using Ser/Thr-19 peptide as substrate incubated for 60 mins in presence of ATP by Z'-LYTE assay"}, "[15]": {"biological_target": "Focal adhesion kinase 1 (Homo sapiens, UniProt Q05397)", "experiment": "Inhibition of recombinant full length human GST-tagged PTK2 expressed in baculovirus expression system using tyr07 peptide as substrate incubated for 60 mins in presence of ATP by Z'-LYTE assay"}, "[16]": {"biological_target": "Aurora kinase B (Homo sapiens, UniProt Q96GD4)", "sequence (Q96GD4 whole entry)": "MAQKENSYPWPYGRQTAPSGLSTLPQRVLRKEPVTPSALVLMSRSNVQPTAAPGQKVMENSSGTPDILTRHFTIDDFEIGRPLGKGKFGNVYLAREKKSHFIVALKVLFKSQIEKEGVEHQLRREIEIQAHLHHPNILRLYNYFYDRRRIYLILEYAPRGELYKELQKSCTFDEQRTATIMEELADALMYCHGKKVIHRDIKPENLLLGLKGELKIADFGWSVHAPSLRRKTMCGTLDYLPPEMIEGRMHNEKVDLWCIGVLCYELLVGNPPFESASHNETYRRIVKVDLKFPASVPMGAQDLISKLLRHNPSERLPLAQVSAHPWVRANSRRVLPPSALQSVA", "experiment": "Inhibition of recombinant full length His-tagged human AURKB expressed in baculovirus expression system using Ser/Thr-01 peptide as substrate incubated for 60 mins in presence of ATP by Z'-LYTE assay"}, "[17]": {"biological_target": "G protein-coupled receptor kinase 3 (Homo sapiens, UniProt P35626)", "experiment": "Inhibition of recombinant full length human GST-tagged GRK3 expressed in baculovirus expression system using serine/threonine-16 peptide as substrate incubated for 60 mins in presence of ATP by Z'-LYTE assay"}, "[18]": {"biological_target": "Dual specificity tyrosine-phosphorylation-regulated kinase 4 (Homo sapiens, UniProt Q9NR20)", "experiment": "Inhibition of recombinant full length human GST-tagged DYRK4 expressed in baculovirus expression system using serine/threonine-9 peptide as substrate incubated for 60 mins in presence of ATP by Z'-LYTE assay"}, "[19]": {"biological_target": "Mitogen-activated protein kinase kinase kinase kinase 5 (Homo sapiens, UniProt Q9Y4K4)", "sequence (Q9Y4K4 whole entry)": "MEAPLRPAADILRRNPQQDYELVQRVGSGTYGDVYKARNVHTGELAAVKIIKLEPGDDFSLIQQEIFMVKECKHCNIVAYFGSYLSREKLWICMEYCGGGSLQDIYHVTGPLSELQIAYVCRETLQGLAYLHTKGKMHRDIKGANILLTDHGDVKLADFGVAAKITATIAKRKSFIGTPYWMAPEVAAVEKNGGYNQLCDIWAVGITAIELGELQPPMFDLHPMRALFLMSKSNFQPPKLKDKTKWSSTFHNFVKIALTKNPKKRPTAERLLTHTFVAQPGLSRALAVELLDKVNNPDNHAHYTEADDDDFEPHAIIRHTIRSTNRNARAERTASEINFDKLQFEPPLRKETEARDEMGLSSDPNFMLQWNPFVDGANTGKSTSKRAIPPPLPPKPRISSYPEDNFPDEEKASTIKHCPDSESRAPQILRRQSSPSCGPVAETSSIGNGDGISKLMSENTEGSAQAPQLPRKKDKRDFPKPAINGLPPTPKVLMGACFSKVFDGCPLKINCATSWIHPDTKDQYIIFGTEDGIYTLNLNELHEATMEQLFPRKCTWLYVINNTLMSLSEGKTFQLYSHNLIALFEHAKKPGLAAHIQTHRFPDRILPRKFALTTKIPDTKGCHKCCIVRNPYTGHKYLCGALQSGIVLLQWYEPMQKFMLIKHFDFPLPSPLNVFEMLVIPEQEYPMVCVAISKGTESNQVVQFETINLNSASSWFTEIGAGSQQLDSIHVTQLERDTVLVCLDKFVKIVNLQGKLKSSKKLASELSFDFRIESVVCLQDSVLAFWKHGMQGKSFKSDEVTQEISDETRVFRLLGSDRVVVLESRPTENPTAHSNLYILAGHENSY", "experiment": "Inhibition of recombinant full length human GST-tagged KHS1 expressed in baculovirus expression system using serine/threonine-7 peptide as substrate incubated for 60 mins in presence of ATP by Z'-LYTE assay"}, "[20]": {"biological_target": "Serine/threonine-protein kinase haspin (Homo sapiens, UniProt Q8TF76)", "experiment": "Inhibition of recombinant N-terminal GST tagged human GSG2 catalytic domain (471 to 798 residues) expressed in baculovirus expression system using Histone H3 (1-20) peptide as substrate after 1 hr in presence of ATP by ADAPTA assay"}, "[21]": {"biological_target": "Progesterone receptor (Homo sapiens) (UniProt P06401)", "experiment": "Inhibition of human progesterone B receptor at 10 uM relative to control"}, "[22]": {"biological_target": "High affinity nerve growth factor receptor (Homo sapiens, UniProt P04629)", "experiment": "Inhibition of recombinant human His-tagged NTRK1 cytoplasmic domain expressed in baculovirus expression system using FRET-labeled tyr 07 peptide as substrate measured after 1 hr in presence of ATP by Z'-lyte assay"}, "[23]": {"biological_target": "Cytochrome P450 2C9 (Homo sapiens, UniProt P11712)", "experiment": "Inhibition of CYP2C9 (unknown origin)", "assay_type": "ADME"}, "[24]": {"biological_target": "Serine/threonine-protein kinase PAK 5 (Homo sapiens, UniProt Q9P286)", "experiment": "Inhibition of recombinant human His-tagged PAK7 catalytic domain (425 to 719 residues) expressed in baculovirus expression system using serine/threonine-20 peptide as substrate incubated for 60 mins in presence of ATP by Z'-LYTE assay"}, "[25]": {"biological_target": "Mitogen-activated protein kinase 3 (Homo sapiens, UniProt P27361)", "experiment": "Inhibition of recombinant full length human GST-tagged ERK1 expressed in Escherichia coli using fluorophore-labeled serine/threonine-3 peptide as substrate incubated for 60 mins in presence of ATP by Z'-LYTE assay"}}, "data": [{"smiles": "C[C@@H]1C[C@H]1C(=O)N1CCN(c2cnc(C#N)c(-c3cnn(C)c3)n2)C[C@H]1C", "values": [{"measurement": "IC50", "setting": "[1]", "result": "> 100", "unit": "µM"}, {"measurement": "IC50", "setting": "[2]", "result": "> 100", "unit": "µM"}, {"measurement": "inhibition", "setting": "[3]", "result": 11, "unit": "%"}, {"measurement": "IC50", "setting": "[4]", "result": "> 100", "unit": "µM"}, {"measurement": "inhibition", "setting": "[5]", "result": 0, "unit": "%"}, {"measurement": "IC50", "setting": "[6]", "result": "> 100", "unit": "µM"}, {"measurement": "inhibition", "setting": "[7]", "result": 6, "unit": "%"}, {"measurement": "inhibition", "setting": "[8]", "result": -1, "unit": "%"}, {"measurement": "IC50", "setting": "[9]", "result": "> 100", "unit": "µM"}, {"measurement": "inhibition", "setting": "[10]", "result": 7, "unit": "%"}, {"measurement": "IC50", "setting": "[11]", "result": 34, "unit": "µM"}, {"measurement": "IC50", "setting": "[12]", "result": "> 100", "unit": "µM"}, {"measurement": "inhibition", "setting": "[13]", "result": 7, "unit": "%"}, {"measurement": "IC50", "setting": "[14]", "result": "> 100", "unit": "µM"}, {"measurement": "IC50", "setting": "[15]", "result": "> 100", "unit": "µM"}, {"measurement": "IC50", "setting": "[16]", "result": "> 100", "unit": "µM"}, {"measurement": "IC50", "setting": "[17]", "result": "> 100", "unit": "µM"}, {"measurement": "IC50", "setting": "[18]", "result": "> 100", "unit": "µM"}, {"measurement": "IC50", "setting": "[19]", "result": 30.4, "unit": "µM"}, {"measurement": "IC50", "setting": "[20]", "result": "> 100", "unit": "µM"}, {"measurement": "inhibition", "setting": "[21]", "result": 0, "unit": "%"}, {"measurement": "IC50", "setting": "[22]", "result": "> 100", "unit": "µM"}, {"measurement": "IC50", "setting": "[23]", "result": "> 50", "unit": "µM"}, {"measurement": "IC50", "setting": "[24]", "result": "> 100", "unit": "µM"}, {"measurement": "IC50", "setting": "[25]", "result": "> 100", "unit": "µM"}]}]}
